Test results: US20230372375A1, “SGLT-2 INHIBITOR SARCOSINE CO-CRYSTAL, PREPARATION METHOD THEREFOR AND USE THEREOF” (Beijing Creatron Institute of Pharmaceutical Research Co. …, priority 2020, published 2023)
Several values for one entry are separate records, joined by “and”; a condition that tells them apart may be missing. Equal entries are not always repeated. Where two headings read alike, the source gives them in different places. Each block holds one compound with its values, some of them ahead of it.

Legend:
[1] = Influencing factors test (physical and chemical stability) of dapagliflozin crystal forms, Test Example 1
Procedure: The materials of the two crystal forms were directly exposed for 10 days to conditions of high temperature of 60° C.±2° C., light irradiation of 4500LX±500LX, and high humidity RH75%±5%, to investigate the physical stability and chemical stability of the two crystal forms.

[2] = Particle size by laser particle size analyzer; settings: water as a dispersant
[3] = Fluidity (angle of repose, bulk density, tap density); settings: BT-1000 powder comprehensive property tester
[4] = Comparison of sieving performance; settings: 30 g, 80 mesh sieve, 1400 rpm, 20 minutes
[5] = physchem; settings: thermodynamic from solid
[6] = Water, 25° C., 24 h
[7] = RH80%/25° C. 24 h
[8] = 1 g cannot be dissolved in 10000 ml; cited from earlier work
[9] = Influencing factors test (physical and chemical stability) of canagliflozin crystal forms, Test Example 2; assay type: physicochemical; design: Impurity RRT0.73 content / Impurity RRT0.93 content / Impurity RRT1.12 content / Impurity RRT1.17 content / Impurity RRT2.25 content / Impurity RRT2.28 content / Impurity RRT0.57 content / Impurity RRT0.67 content: unit not given here
Procedure: The canagliflozin-sarcosine cocrystal and canagliflozin hemihydrate (original crystal form) were tested for influencing factors.

[10] = 60° C., directly exposed 10 days
[11] = Light irradiation of 5000 Lx, 10 days
[12] = artificial gastric juice, 25 °C, simulated gastric fluid
[13] = artificial intestinal juice, 25 °C, fassgf or other biorelevant
[14] = citrate buffer of pH 3.0, 25 °C, pH 3, aqueous buffer
[15] = hydrochloric acid of pH 1.0, 25 °C, pH 1, simulated gastric fluid
[16] = phosphate buffer, 25 °C, pH 6.8, aqueous buffer
[17] = Directly exposed at 60° C. for 10 days
[18] = Directly exposed at 5000 LX for 10 days
[19] = Directly exposed at RH75% for 10 days

- Impurity 6 (RT 21.65 min, RRT 1.06) content ([1]; 0 day): 0.01
- Impurity 7 (RT 22.01 min, RRT 1.07) content ([1]; 0 day): 0.01
- Impurity 10 (RT 33.01 min, RRT 1.61) content ([1]; 0 day): 0.02
- Impurity 11 (RT 33.72 min, RRT 1.65) content ([1]; 0 day): 0.01
- Impurity 12 (RT 34.69 min, RRT 1.69) content ([1]; 0 day): 0.01
- Impurity 13 (RT 39.10 min, RRT 1.91) content ([1]; 0 day): 0.02
- Number of impurities ([1]; 0 day): 6
- Property (appearance) ([1]; 0 day): White
- Total content of impurities (%) ([1]; 0 day): 0.07%
- Impurity 1 (RT 7.45 min, RRT 0.36) content [1, 10]: 0.02
- Impurity 2 (RT 10.46 min, RRT 0.51) content [1, 10]: 0.14
- Impurity 3 (RT 14.06 min, RRT 0.69) content [1, 10]: 0.01
- Impurity 4 (RT 14.62 min, RRT 0.71) content [1, 10]: 0.21
- Impurity 5 (RT 16.02 min, RRT 0.78) content [1, 10]: 0.01
- Impurity 6 (RT 21.65 min, RRT 1.06) content [1, 10]: 0.01
- Impurity 7 (RT 22.01 min, RRT 1.07) content [1, 10]: 0.01
- Impurity 8 (RT 27.17 min, RRT 1.33) content [1, 10]: 0.02
- Impurity 9 (RT 30.53 min, RRT 1.49) content [1, 10]: 0.02
- Impurity 10 (RT 33.01 min, RRT 1.61) content [1, 10]: 0.02
- Impurity 11 (RT 33.72 min, RRT 1.65) content [1, 10]: 0.01
- Impurity 12 (RT 34.69 min, RRT 1.69) content [1, 10]: 0.01
- Impurity 13 (RT 39.10 min, RRT 1.91) content [1, 10]: 0.02
- Number of impurities [1, 10]: 13
- Property (appearance) [1, 10]: Melted
- Total content of impurities (%) [1, 10]: 0.50%
- Impurity 6 (RT 21.65 min, RRT 1.06) content [1, 11]: 0.01
- Impurity 7 (RT 22.01 min, RRT 1.07) content [1, 11]: 0.01
- Impurity 10 (RT 33.01 min, RRT 1.61) content [1, 11]: 0.02
- Impurity 11 (RT 33.72 min, RRT 1.65) content [1, 11]: 0.01
- Impurity 12 (RT 34.69 min, RRT 1.69) content [1, 11]: 0.01
- Impurity 13 (RT 39.10 min, RRT 1.91) content [1, 11]: 0.02
- Number of impurities [1, 11]: 6
- Total content of impurities (%) [1, 11]: 0.08%
- Impurity 6 (RT 21.65 min, RRT 1.06) content ([1]; RH75%, 10 days): 0.01
- Impurity 7 (RT 22.01 min, RRT 1.07) content ([1]; RH75%, 10 days): 0.01
- Impurity 10 (RT 33.01 min, RRT 1.61) content ([1]; RH75%, 10 days): 0.02
- Impurity 11 (RT 33.72 min, RRT 1.65) content ([1]; RH75%, 10 days): 0.01
- Impurity 12 (RT 34.69 min, RRT 1.69) content ([1]; RH75%, 10 days): 0.01
- Impurity 13 (RT 39.10 min, RRT 1.91) content ([1]; RH75%, 10 days): 0.02
- Number of impurities ([1]; RH75%, 10 days): 6
- Total content of impurities (%) ([1]; RH75%, 10 days): 0.08%
- D10 (μm) [2]: 2.492 μm
- D50 (μm) [2]: 61.55 μm
- D90 (μm) [2]: 256.2 μm
- Angle of repose (°) [3]: 48 °
- Bulk density [3]: 0.35 g/mL
- Tap density [3]: 0.53 g/mL
- Average yield (%) after sieving [4]: 86.0%
- Situations after sieving [4]: Almost no large particles but a
- Yield after sieving (%, n = 3), single runs ([4]; listed as Dapagliflozin (S)-propylene glycol hydrate): 85.2, % and 87.7, % and 84.9%
SMILES: CCOc1ccc(Cc2cc([C@@H]3O[C@H](CO)[C@@H](O)[C@H](O)[C@H]3O)ccc2Cl)cc1.C[C@H](O)CO.O

- Impurity 10 (RT 33.01 min, RRT 1.61) content ([1]; 0 day): 0.03
- Impurity 11 (RT 33.72 min, RRT 1.65) content ([1]; 0 day): 0.01
- Impurity 12 (RT 34.69 min, RRT 1.69) content ([1]; 0 day): 0.03
- Impurity 13 (RT 39.10 min, RRT 1.91) content ([1]; 0 day): 0.01
- Number of impurities ([1]; 0 day): 4
- Property (appearance) ([1]; 0 day): White
- Total content of impurities (%) ([1]; 0 day): 0.07%
- Impurity 10 (RT 33.01 min, RRT 1.61) content [1, 10]: 0.02
- Impurity 11 (RT 33.72 min, RRT 1.65) content [1, 10]: 0.01
- Impurity 12 (RT 34.69 min, RRT 1.69) content [1, 10]: 0.02
- Impurity 13 (RT 39.10 min, RRT 1.91) content [1, 10]: 0.01
- Number of impurities [1, 10]: 4
- Property (appearance) [1, 10]: White
- Total content of impurities (%) [1, 10]: 0.06%
- Impurity 10 (RT 33.01 min, RRT 1.61) content [1, 11]: 0.02
- Impurity 11 (RT 33.72 min, RRT 1.65) content [1, 11]: 0.01
- Impurity 12 (RT 34.69 min, RRT 1.69) content [1, 11]: 0.02
- Impurity 13 (RT 39.10 min, RRT 1.91) content [1, 11]: 0.01
- Number of impurities [1, 11]: 4
- Property (appearance) [1, 11]: White
- Total content of impurities (%) [1, 11]: 0.05%
- Impurity 10 (RT 33.01 min, RRT 1.61) content ([1]; RH75%, 10 days): 0.02
- Impurity 11 (RT 33.72 min, RRT 1.65) content ([1]; RH75%, 10 days): 0.01
- Impurity 12 (RT 34.69 min, RRT 1.69) content ([1]; RH75%, 10 days): 0.02
- Impurity 13 (RT 39.10 min, RRT 1.91) content ([1]; RH75%, 10 days): 0.01
- Number of impurities ([1]; RH75%, 10 days): 4
- Property (appearance) ([1]; RH75%, 10 days): White
- Total content of impurities (%) ([1]; RH75%, 10 days): 0.06%
- Number of impurities detected and total content of impurities detected, change ([1]; all the test conditions, 10 days vs 0 day): did not increase
- Crystal form stability (XRPD) ([1]; each influencing factor (60° C., 5000LX, RH75%) for 10 days vs 0 day): did not change
- solubility at 12 h ([5]; acetate buffer of pH 4.0, 25 °C, pH 4, aqueous buffer): 1640 µg/mL
- solubility at 24 h ([5]; acetate buffer, 25 °C, pH 4, aqueous buffer): 1620 µg/mL
- Solubility ([5]; aqueous media of different pH, 25 °C, aqueous buffer): 1400 to 1600 µg/mL
- solubility at 12 h [5, 12]: 1560 µg/mL
- solubility at 24 h [5, 12]: 1550 µg/mL
- solubility at 12 h [5, 13]: 1400 µg/mL
- solubility at 24 h [5, 13]: 1430 µg/mL
- solubility at 12 h [5, 14]: 1620 µg/mL
- solubility at 24 h [5, 14]: 1610 µg/mL
- solubility at 12 h [5, 15]: 1600 µg/mL
- solubility at 24 h [5, 15]: 1560 µg/mL
- solubility at 12 h [5, 16]: 1580 µg/mL
- solubility at 24 h [5, 16]: 1580 µg/mL
- D10 (μm) [2]: 5.151 μm
- D50 (μm) [2]: 24.83 μm
- D90 (μm) [2]: 89.93 μm
- Solubility [6]: 1590 µg/mL
- Angle of repose (°) [3]: 40 °
- Bulk density [3]: 0.40 g/mL
- Tap density [3]: 0.58 g/mL
- Average yield (%) after sieving [4]: 91.8%
- Situations after sieving [4]: Almost no large particles on the
- Yield after sieving (%, n = 3), single runs [4]: 93.6, % and 90.5, % and 91.3%
- Hygroscopicity [7]: does not have hygroscopicity
- Percentage of weight gain (%) [7]: 0.00%
SMILES: CCOc1ccc(Cc2cc([C@@H]3O[C@H](CO)[C@@H](O)[C@H](O)[C@H]3O)ccc2Cl)cc1 [dapagliflozin-sarcosine cocrystal]

- Impurity RRT0.57 content ([9]; 0 day): 0.01
- Impurity RRT0.67 content ([9]; 0 day): 0.01
- Impurity RRT0.93 content ([9]; 0 day): 0.01
- Impurity RRT1.17 content ([9]; 0 day): 0.01
- Impurity RRT2.25 content ([9]; 0 day): 0.01
- Impurity RRT2.28 content ([9]; 0 day): 0.01
- Number of impurities ([9]; 0 day): 6
- Property (appearance) ([9]; 0 day): White
- Total content of impurities ([9]; 0 day): 0.06%
- Impurity RRT0.57 content [9, 17]: 0.01
- Impurity RRT0.67 content [9, 17]: 0.01
- Impurity RRT0.93 content [9, 17]: 0.01
- Impurity RRT1.17 content [9, 17]: 0.01
- Impurity RRT2.25 content [9, 17]: 0.01
- Impurity RRT2.28 content [9, 17]: 0.01
- Number of impurities [9, 17]: 6
- Property (appearance) [9, 17]: White
- Total content of impurities [9, 17]: 0.05%
- Impurity RRT0.57 content [9, 18]: 0.02
- Impurity RRT0.73 content [9, 18]: 0.01
- Impurity RRT0.93 content [9, 18]: 0.01
- Impurity RRT1.12 content [9, 18]: 0.01
- Impurity RRT1.17 content [9, 18]: 0.01
- Impurity RRT2.25 content [9, 18]: 0.01
- Impurity RRT2.28 content [9, 18]: 0.01
- Number of impurities [9, 18]: 7
- Property (appearance) [9, 18]: White
- Total content of impurities [9, 18]: 0.08%
- Impurity RRT0.57 content [9, 19]: 0.01
- Impurity RRT0.67 content [9, 19]: 0.01
- Impurity RRT0.93 content [9, 19]: 0.02
- Impurity RRT1.17 content [9, 19]: 0.01
- Impurity RRT2.25 content [9, 19]: 0.01
- Impurity RRT2.28 content [9, 19]: 0.01
- Number of impurities [9, 19]: 6
- Property (appearance) [9, 19]: White
- Total content of impurities [9, 19]: 0.07%
- Weight gained ([9]; high humidity of RH75% for 10 days): about 2.1%
- Weight lost ([9]; high temperature of 60° C. for 10 days): about 1.0%
- New impurities detected (number) ([9]; light irradiation of 5000LX for 10 days): 1
SMILES: Cc1ccc([C@@H]2O[C@H](CO)[C@@H](O)[C@H](O)[C@H]2O)cc1Cc1ccc(-c2ccc(F)cc2)s1.O [canagliflozin hemihydrate]
- Solubility in water [8]: almost insoluble in water
